Test results reported in ChEMBL document CHEMBL3885861, “Open TG-GATES”.

Species: Rattus norvegicus
Assay: Open TG-GATES - Regimen: Single
Format: toxicity, organism-based, Sprague-Dawley
Design: regimen Single, gender Male, age 6 weeks
Settings: in vivo, po, 3 mg/kg, route gavage, dose level Middle; for APTT / Bas / Eos / Fbg / Hb / Ht / Lym / MCH / MCHC / MCV / Mono / Neu / PT / Plat / RBC / Ret / WBC: tissue Blood; for KIDNEY_L / KIDNEY_R / KIDNEY_TOTAL: tissue Kidney; for LIVER: tissue Liver; for A/G / ALP / ALT / AST / BUN / CRE / Ca / Cl / DBIL / GLC / IP / K / LDH / Na / PL / RALB / TBIL / TC / TG / TP / gamma-GTP: tissue Plasma

CN1C(C(=O)Nc2ccccn2)=C(O)c2sc(Cl)cc2S1(=O)=O [LORNOXICAM]
TERMINAL_BW (3 h): 224.5 g
APTT (3 h): 20.3 s
Bas (3 h): 0.6%
Eos (3 h): 1%
Fbg (3 h): 223.8 mg/dL
Hb (3 h): 13.2 g/dL
Ht (3 h): 40%
Lym (3 h): 75.2%
MCH (3 h): 21 pg
MCHC (3 h): 32.9%
MCV (3 h): 63.8 fL
Mono (3 h): 3.4%
Neu (3 h): 19.6%
PT (3 h): 11.7 s
Plat (3 h): 123.9 x10_4/uL
RBC (3 h): 626.4 x10_4/ul
Ret (3 h): 7.2%
WBC (3 h): 135.4 x10_2/uL
KIDNEY_L (3 h): 1 g
KIDNEY_R (3 h): 1 g
KIDNEY_TOTAL (3 h): 2 g
LIVER (3 h): 10.3 g
A/G (3 h): 1.6
ALP (3 h): 1026.6 IU/L
ALT (3 h): 45.4 IU/L
AST (3 h): 81 IU/L
BUN (3 h): 12.4 mg/dL
CRE (3 h): 0.3 mg/dL
Ca (3 h): 10.8 mg/dL
Cl (3 h): 104 meq/L
DBIL (3 h): 0.074 mg/dL
GLC (3 h): 197 mg/dL
IP (3 h): 9 mg/dL
K (3 h): 4.1 meq/L
LDH (3 h): 163.8 IU/L
Na (3 h): 141.8 meq/L
PL (3 h): 152.8 mg/dL
RALB (3 h): 3.5 g/dL
TBIL (3 h): 0.1 mg/dL
TC (3 h): 82.4 mg/dL
TG (3 h): 73.8 mg/dL
TP (3 h): 5.7 g/dL
gamma-GTP (3 h): 1 IU/L
TERMINAL_BW (6 h): 222.9 g
APTT (6 h): 18.9 s
Bas (6 h): 0.6%
Eos (6 h): 0.8%
Fbg (6 h): 223.6 mg/dL
Hb (6 h): 13.4 g/dL
Ht (6 h): 40.2%
Lym (6 h): 78.4%
MCH (6 h): 21.3 pg
MCHC (6 h): 33.4%
MCV (6 h): 63.7 fL
Mono (6 h): 3.4%
Neu (6 h): 16.8%
PT (6 h): 12.3 s
Plat (6 h): 123.6 x10_4/uL
RBC (6 h): 631.2 x10_4/ul
Ret (6 h): 7.2%
WBC (6 h): 108.8 x10_2/uL
KIDNEY_L (6 h): 1 g
KIDNEY_R (6 h): 1 g
KIDNEY_TOTAL (6 h): 1.9 g
LIVER (6 h): 10 g
A/G (6 h): 1.7
ALP (6 h): 948.8 IU/L
ALT (6 h): 38.2 IU/L
AST (6 h): 72.8 IU/L
BUN (6 h): 11.8 mg/dL
CRE (6 h): 0.4 mg/dL
Ca (6 h): 10.6 mg/dL
Cl (6 h): 104 meq/L
DBIL (6 h): 0.074 mg/dL
GLC (6 h): 193.6 mg/dL
IP (6 h): 8.6 mg/dL
K (6 h): 4.1 meq/L
LDH (6 h): 159 IU/L
Na (6 h): 140.6 meq/L
PL (6 h): 134.8 mg/dL
RALB (6 h): 3.5 g/dL
TBIL (6 h): 0.2 mg/dL
TC (6 h): 75 mg/dL
TG (6 h): 64.4 mg/dL
TP (6 h): 5.6 g/dL
gamma-GTP (6 h): 0.8 IU/L
TERMINAL_BW (9 h): 223.4 g
APTT (9 h): 18.6 s
Bas (9 h): 0.4%
Eos (9 h): 0.8%
Fbg (9 h): 220.2 mg/dL
Hb (9 h): 13.2 g/dL
Ht (9 h): 39.2%
Lym (9 h): 71.2%
MCH (9 h): 21.6 pg
MCHC (9 h): 33.7%
MCV (9 h): 64.1 fL
Mono (9 h): 3.4%
Neu (9 h): 24%
PT (9 h): 12.2 s
Plat (9 h): 120.6 x10_4/uL
RBC (9 h): 611.6 x10_4/ul
Ret (9 h): 6.8%
WBC (9 h): 110.6 x10_2/uL
KIDNEY_L (9 h): 1 g
KIDNEY_R (9 h): 1 g
KIDNEY_TOTAL (9 h): 2 g
LIVER (9 h): 9.1 g
A/G (9 h): 1.6
ALP (9 h): 857.8 IU/L
ALT (9 h): 41.2 IU/L
AST (9 h): 69.8 IU/L
BUN (9 h): 10.8 mg/dL
CRE (9 h): 0.3 mg/dL
Ca (9 h): 10.5 mg/dL
Cl (9 h): 103.2 meq/L
DBIL (9 h): 0.064 mg/dL
GLC (9 h): 190 mg/dL
IP (9 h): 9.7 mg/dL
K (9 h): 4.1 meq/L
LDH (9 h): 168.6 IU/L
Na (9 h): 141.2 meq/L
PL (9 h): 125.4 mg/dL
RALB (9 h): 3.2 g/dL
TBIL (9 h): 0.1 mg/dL
TC (9 h): 66.2 mg/dL
TG (9 h): 54.4 mg/dL
TP (9 h): 5.3 g/dL
gamma-GTP (9 h): 1 IU/L
TERMINAL_BW (24 h): 235.4 g
APTT (24 h): 20 s
Bas (24 h): 0.2%
Eos (24 h): 0.2%
Fbg (24 h): 261.6 mg/dL
Hb (24 h): 12.8 g/dL
Ht (24 h): 39%
Lym (24 h): 60.2%
MCH (24 h): 20.8 pg
MCHC (24 h): 32.9%
MCV (24 h): 63.5 fL
Mono (24 h): 3.8%
Neu (24 h): 33.8%
PT (24 h): 12.1 s
Plat (24 h): 122.4 x10_4/uL
RBC (24 h): 614.2 x10_4/ul
Ret (24 h): 6.8%
WBC (24 h): 136.9 x10_2/uL
KIDNEY_L (24 h): 1 g
KIDNEY_R (24 h): 1 g
KIDNEY_TOTAL (24 h): 2.1 g
LIVER (24 h): 11.4 g
A/G (24 h): 1.5
ALP (24 h): 892.2 IU/L
ALT (24 h): 39.8 IU/L
AST (24 h): 67.6 IU/L
BUN (24 h): 13.2 mg/dL
CRE (24 h): 0.4 mg/dL
Ca (24 h): 10.5 mg/dL
Cl (24 h): 104.8 meq/L
DBIL (24 h): 0.078 mg/dL
GLC (24 h): 203.8 mg/dL
IP (24 h): 7.8 mg/dL
K (24 h): 4.2 meq/L
LDH (24 h): 207.8 IU/L
Na (24 h): 141.8 meq/L
PL (24 h): 133.2 mg/dL
RALB (24 h): 3.1 g/dL
TBIL (24 h): 0.1 mg/dL
TC (24 h): 68.2 mg/dL
TG (24 h): 74.4 mg/dL
TP (24 h): 5.1 g/dL
gamma-GTP (24 h): 0.8 IU/L
